For test [1], the target named is T1, human serotonin transporter (Homo sapiens, UniProt P31645).
T1 construct: expressed in transfected cells
Kind of test: Inhibitory action on human serotonin transporter ([3H]-5-hydroxytryptamine uptake in CHO cells). It is filed as cell-based. The following applies: CHO, relative to inhibitory activity of 10 μM Paroxetine as 100%, read-out: inhibitory rate (%); for inhibition at 1 µM: compound 1 μM. The method, boiled down:
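CHO-K1 cells stably expressing human SERT, plated overnight, took up [3H]-5-HT (diluted to 200 nM before a 1:10 addition) for 20 min in HEPES-buffered saline with glucose and 0.5% BSA; radioactivity counted by scintillation. Compounds at 10 μM or 1 μM, activity expressed relative to 10 μM paroxetine set as 100%.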

Test [2] has as its target T2, human dopamine transporter (Homo sapiens, UniProt Q01959).
T2 construct: expressed in transfected cells
Kind of test: Inhibitory action on human dopamine transporter ([3H]-dopamine uptake in CHO cells). The following applies: CHO, relative to inhibitory activity of 100 μM Nomifensine as 100%, read-out: inhibitory rate (%); for inhibition at 1 µM: compound 1 μM. It is filed as cell-based. In a few lines: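 CHO-K1 cells stably expressing human dopamine transporter, exposed to compound at 10 μM or 1 μM in HEPES-buffered saline with 0.5% BSA. [3H]-dopamine uptake measured over 60 min by scintillation counting. Activity expressed relative to 100 μM nomifensine as 100%.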

Counter-ions that a name gives are not always drawn.

T1 sequence (P31645 whole entry): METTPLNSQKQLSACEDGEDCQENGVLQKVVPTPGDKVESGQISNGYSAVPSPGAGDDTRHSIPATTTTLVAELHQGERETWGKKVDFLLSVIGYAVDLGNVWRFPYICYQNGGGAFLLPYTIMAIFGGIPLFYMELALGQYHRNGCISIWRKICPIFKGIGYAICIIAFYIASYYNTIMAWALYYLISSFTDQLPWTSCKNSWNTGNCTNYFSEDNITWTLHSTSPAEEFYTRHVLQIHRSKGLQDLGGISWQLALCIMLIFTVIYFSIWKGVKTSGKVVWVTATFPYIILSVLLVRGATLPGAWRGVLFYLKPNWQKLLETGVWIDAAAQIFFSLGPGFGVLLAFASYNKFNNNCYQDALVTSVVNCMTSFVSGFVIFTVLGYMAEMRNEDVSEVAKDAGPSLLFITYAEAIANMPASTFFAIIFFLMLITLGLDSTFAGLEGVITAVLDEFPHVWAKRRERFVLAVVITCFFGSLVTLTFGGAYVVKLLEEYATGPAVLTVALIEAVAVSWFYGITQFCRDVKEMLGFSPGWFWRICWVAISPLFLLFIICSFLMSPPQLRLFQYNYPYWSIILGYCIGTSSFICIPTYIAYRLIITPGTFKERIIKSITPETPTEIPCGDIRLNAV
T2 sequence (Q01959 whole entry): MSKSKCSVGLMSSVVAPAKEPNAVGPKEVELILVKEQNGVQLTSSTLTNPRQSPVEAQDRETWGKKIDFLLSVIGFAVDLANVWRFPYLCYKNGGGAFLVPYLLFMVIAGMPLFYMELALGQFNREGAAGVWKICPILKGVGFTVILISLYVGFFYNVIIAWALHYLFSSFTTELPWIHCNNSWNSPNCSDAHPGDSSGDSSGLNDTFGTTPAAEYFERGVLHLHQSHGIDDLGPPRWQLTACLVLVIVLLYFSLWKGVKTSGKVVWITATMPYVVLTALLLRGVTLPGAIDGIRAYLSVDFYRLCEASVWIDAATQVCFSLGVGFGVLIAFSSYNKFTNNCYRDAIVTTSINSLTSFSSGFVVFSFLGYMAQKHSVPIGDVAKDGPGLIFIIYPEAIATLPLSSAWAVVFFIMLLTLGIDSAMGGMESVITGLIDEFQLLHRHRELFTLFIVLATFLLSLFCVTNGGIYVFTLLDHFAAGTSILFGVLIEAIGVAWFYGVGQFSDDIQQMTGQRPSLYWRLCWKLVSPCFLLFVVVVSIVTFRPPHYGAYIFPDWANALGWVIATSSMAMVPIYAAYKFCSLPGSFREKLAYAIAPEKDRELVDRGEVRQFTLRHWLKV

With `CC(=O)NC[C@H]1CNCCO[C@@H]1c1ccc(Cl)c(Cl)c1` (racemic) [Example 6, N-{[(6RS,7SR)-7-(3,4-dichlorophenyl)-1,4-oxazepan-6-yl]methyl}acetamide monohydrochloride], the inhibition at 1 µM in test [1] turned out to be 84%; in test [2] it was 33%. Further, the inhibition at 10 µM in test [1] (compound 10 μM, CHO cells expressing human serotonin transporter) is 98%; in test [2] (compound 10 μM) it was 84%.
`O=c1[nH]c(-c2cccn(C[C@@H]3CNCCO[C@H]3c3ccc(Cl)c(Cl)c3)c2=O)no1` [Example 31, 1-{[(6S,7R)-7-(3,4-dichlorophenyl)-1,4-oxazepan-6-yl]methyl}-3-(5-oxo-4,5-dihydro-1,2,4-oxadiazol-3-yl)pyridin-2(1H)-one monohydrochloride]: the inhibition at 1 µM in test [1] stood at 95%; in test [2], 33%.
In the case of `CC(=O)NC[C@@H]1CNCCO[C@H]1c1ccc(Cl)c(Cl)c1` [Example 32, N-{[(6S,7R)-7-(3,4-dichlorophenyl)-1,4-oxazepan-6-yl]methyl}acetamide 0.5 fumarate], the inhibition at 1 µM in test [1] is 84%; in test [2] it was 34%.
In the case of `COCC(=O)NC[C@@H]1CNCCO[C@H]1c1ccc(Cl)c(Cl)c1` [Example 33, N-{[(6S,7R)-7-(3,4-dichlorophenyl)-1,4-oxazepan-6-yl]methyl}-2-methoxyacetamide monohydrochloride], the inhibition at 1 µM in test [1] stood at 92%; in test [2], 35%.
For `CC(=O)N[C@@H]1CNCCO[C@H]1c1ccc(Cl)c(Cl)c1` [Example 36, N-[(6R,7S)-7-(3,4-dichlorophenyl)-1,4-oxazepan-6-yl]acetamide monofumarate], the inhibition at 1 µM in test [1] came out at 69%; in test [2], 53%.
For the compound `NS(=O)(=O)N[C@@H]1CNCCO[C@H]1c1ccc(Cl)c(Cl)c1` [Example 37, N-[(6R,7S)-7-(3,4-dichlorophenyl)-1,4-oxazepan-6-yl]sulfamide monohydrochloride], the inhibition at 1 µM came to 71% in test [1] and 51% in test [2].
Take `COCC(=O)NC[C@@H]1CNCCO[C@H]1c1ccc(Cl)c(F)c1` [Example 38, N-{[(6S,7R)-7-(4-chloro-3-fluorophenyl)-1,4-oxazepan-6-yl]methyl}-2-methoxyacetamide monohydrochloride]: the inhibition at 1 µM came to 69% in test [1] and 11% in test [2].
On to `[2H]C([2H])([2H])OCC(=O)NC[C@@H]1CNCCO[C@H]1c1ccc(Cl)c(F)c1` [Example 39, N-{[(6S,7R)-7-(4-chloro-3-fluorophenyl)-1,4-oxazepan-6-yl]methyl}-2-[(^2H3)methyloxy]acetamide monohydrochloride], for which the inhibition at 1 µM in test [1] is 58%; in test [2] it was 17%.
For `CCOCC(=O)NC[C@@H]1CNCCO[C@H]1c1ccc(Cl)c(F)c1` [Example 40, N-{[(6S,7R)-7-(4-chloro-3-fluorophenyl)-1,4-oxazepan-6-yl]methyl}-2-ethoxyacetamide monohydrochloride], the inhibition at 1 µM in test [1] was 80%; in test [2] it was 9%.
As for `CC(C)OCC(=O)NC[C@@H]1CNCCO[C@H]1c1ccc(Cl)c(F)c1` [Example 41, N-{[(6S,7R)-7-(4-chloro-3-fluorophenyl)-1,4-oxazepan-6-yl]methyl}-2-(1-methylethoxy)acetamide monohydrochloride], the inhibition at 1 µM in test [1] stood at 70%; in test [2] it was 11%.
In the case of `O=c1[nH]c(-c2cccn(C[C@@H]3CNCCO[C@H]3c3ccc(Cl)c(F)c3)c2=O)no1` [Example 43, 1-{[(6S,7R)-7-(4-chloro-3-fluorophenyl)-1,4-oxazepan-6-yl]methyl}-3-(5-oxo-4,5-dihydro-1,2,4-oxadiazol-3-yl)pyridin-2(1H)-one monohydrochloride], the inhibition at 1 µM in test [1] came to 72%; in test [2], 15%.
Consider `O=C(O)c1cccn(C[C@@H]2CNCCO[C@H]2c2ccc(Cl)c(F)c2)c1=O` [Example 44, 1-{[(6S,7R)-7-(4-chloro-3-fluorophenyl)-1,4-oxazepan-6-yl]methyl}-2-oxo-1,2-dihydropyridine-3-carboxylic acid monohydrochloride], for which the values for the inhibition at 1 µM in test [1] and in test [2] were 40% and 8%, respectively.
For the compound `OC[C@H](O)[C@@H]1OCCNC[C@H]1c1ccc(Cl)c(Cl)c1` [Example 45, (1S)-1-[(6R,7R)-6-(3,4-dichlorophenyl)-1,4-oxazepan-7-yl]ethane-1,2-diol monohydrochloride], the inhibition at 1 µM amounted to 36% in test [1] and 52% in test [2].
`O=c1[nH]c(-c2cccnc2O[C@@H]2CNCCO[C@H]2c2ccc(Cl)c(F)c2)no1` [Example 556, 3-(2-{[(6R,7S)-7-(4-chloro-3-fluorophenyl)-1,4-oxazepan-6-yl]oxy}pyridin-3-yl)-1,2,4-oxadiazol-5(4H)-one monohydrochloride]: the inhibition at 1 µM in test [1] was 77%; in test [2] it was 71%.
For `O=c1[nH]c(-c2ccccc2O[C@@H]2CNCCO[C@H]2c2ccc(Cl)c(F)c2)no1` [Example 577, 3-(2-{[(6R, 7S)-7-(4-chloro-3-fluoro-phenyl)-1,4-oxazepan-6-yl]oxy}phenyl)-1,2,4-oxadiazol-5(4H)-one] the same measures were 53% and 53%.
The matching figures for `O=c1[nH]c(-c2ncccc2O[C@@H]2CNCCO[C@H]2c2ccc(Cl)c(F)c2)no1` [Example 584, 3-(3-{[(6R, 7S)-7-(4-chloro-3-fluorophenyl)-1,4-oxazepan-6-yl]oxy}pyridin-2-yl)-1,2,4-oxadiazol-5(4H)-one]: 41% and 57%.

(Values after patent US20130267494A1, “1,4-OXAZEPANE DERIVATIVES” (priority 2010, published 2013).)
